The record followed here is publication PMC4769319, “Cohesin Releases DNA through Asymmetric ATPase-Driven Ring Opening” (Molecular Cell, 2016).

The assay concerns the target T1, Smc1/Smc3 heterodimer with Scc1-C (cohesin) (Saccharomyces cerevisiae, UniProt P32908+P47037, P32908:D1164E, form not given).
T1 construct: N-terminal tags; Sf9 insect cells; fluorescently labelled for MST; with Sister chromatid cohesion protein 1
T1 sequence (P32908 1-1225 D1164E): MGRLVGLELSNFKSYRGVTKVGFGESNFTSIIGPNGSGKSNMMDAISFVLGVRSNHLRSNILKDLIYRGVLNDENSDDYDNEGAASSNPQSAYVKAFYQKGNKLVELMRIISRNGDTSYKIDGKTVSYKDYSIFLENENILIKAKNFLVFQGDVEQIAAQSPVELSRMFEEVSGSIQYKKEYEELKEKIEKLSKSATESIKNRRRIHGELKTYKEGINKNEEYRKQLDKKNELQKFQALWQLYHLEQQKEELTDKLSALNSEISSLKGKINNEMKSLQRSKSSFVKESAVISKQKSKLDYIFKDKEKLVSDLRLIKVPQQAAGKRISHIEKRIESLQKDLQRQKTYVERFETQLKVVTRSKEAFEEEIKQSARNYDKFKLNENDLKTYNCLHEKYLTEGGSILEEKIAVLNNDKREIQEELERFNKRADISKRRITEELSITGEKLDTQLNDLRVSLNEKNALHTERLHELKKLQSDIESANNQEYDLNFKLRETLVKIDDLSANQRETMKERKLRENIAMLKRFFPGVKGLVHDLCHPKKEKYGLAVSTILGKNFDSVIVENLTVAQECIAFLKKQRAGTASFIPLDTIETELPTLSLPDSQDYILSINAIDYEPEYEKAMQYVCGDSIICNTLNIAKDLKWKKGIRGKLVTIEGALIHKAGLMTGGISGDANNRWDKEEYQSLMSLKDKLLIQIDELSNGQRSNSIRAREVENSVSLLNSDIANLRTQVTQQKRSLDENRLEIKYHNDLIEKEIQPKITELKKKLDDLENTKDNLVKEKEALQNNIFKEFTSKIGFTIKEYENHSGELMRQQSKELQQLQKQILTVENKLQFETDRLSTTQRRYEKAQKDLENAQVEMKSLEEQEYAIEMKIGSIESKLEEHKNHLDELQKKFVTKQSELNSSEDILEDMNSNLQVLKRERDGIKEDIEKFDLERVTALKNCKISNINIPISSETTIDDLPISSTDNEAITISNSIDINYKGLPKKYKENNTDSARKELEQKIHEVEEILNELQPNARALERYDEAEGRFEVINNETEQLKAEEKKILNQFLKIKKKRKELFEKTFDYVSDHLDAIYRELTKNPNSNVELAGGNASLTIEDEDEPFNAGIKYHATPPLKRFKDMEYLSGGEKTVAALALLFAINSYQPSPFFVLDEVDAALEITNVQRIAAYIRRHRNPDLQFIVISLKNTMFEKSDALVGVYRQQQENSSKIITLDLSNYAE
T1 sequence (P47037 1-1230): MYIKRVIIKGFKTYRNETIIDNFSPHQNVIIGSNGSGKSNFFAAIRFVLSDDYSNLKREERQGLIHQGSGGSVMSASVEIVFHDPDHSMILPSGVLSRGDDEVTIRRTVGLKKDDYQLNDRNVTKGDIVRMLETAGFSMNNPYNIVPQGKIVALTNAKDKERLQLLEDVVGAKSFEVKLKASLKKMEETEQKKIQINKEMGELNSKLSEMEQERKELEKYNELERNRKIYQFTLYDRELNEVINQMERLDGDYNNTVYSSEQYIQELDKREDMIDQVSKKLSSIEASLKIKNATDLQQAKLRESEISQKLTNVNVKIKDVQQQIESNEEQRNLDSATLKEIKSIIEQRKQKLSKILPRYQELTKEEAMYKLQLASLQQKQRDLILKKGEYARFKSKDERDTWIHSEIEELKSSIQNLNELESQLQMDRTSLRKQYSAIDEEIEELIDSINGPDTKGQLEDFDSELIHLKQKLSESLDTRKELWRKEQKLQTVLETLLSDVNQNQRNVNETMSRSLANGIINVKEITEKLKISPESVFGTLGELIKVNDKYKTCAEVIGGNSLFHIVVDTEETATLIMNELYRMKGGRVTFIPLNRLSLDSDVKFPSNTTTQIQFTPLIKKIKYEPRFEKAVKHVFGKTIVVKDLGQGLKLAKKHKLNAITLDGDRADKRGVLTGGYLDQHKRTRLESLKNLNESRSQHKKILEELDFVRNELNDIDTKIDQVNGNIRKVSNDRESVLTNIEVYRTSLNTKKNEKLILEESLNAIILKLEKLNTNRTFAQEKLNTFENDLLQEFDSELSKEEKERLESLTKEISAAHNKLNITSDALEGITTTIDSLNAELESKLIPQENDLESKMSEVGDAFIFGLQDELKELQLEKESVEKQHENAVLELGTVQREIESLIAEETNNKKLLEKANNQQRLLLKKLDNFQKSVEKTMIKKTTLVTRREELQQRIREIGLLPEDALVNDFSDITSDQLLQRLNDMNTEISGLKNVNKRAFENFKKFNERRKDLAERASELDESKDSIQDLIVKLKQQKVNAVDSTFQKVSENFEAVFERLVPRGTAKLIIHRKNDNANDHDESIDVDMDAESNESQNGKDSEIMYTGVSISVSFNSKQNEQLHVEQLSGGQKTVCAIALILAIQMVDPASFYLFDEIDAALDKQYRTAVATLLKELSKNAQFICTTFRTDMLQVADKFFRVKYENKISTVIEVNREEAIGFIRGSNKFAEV
T1 sequence (Q12158 1-566 partner): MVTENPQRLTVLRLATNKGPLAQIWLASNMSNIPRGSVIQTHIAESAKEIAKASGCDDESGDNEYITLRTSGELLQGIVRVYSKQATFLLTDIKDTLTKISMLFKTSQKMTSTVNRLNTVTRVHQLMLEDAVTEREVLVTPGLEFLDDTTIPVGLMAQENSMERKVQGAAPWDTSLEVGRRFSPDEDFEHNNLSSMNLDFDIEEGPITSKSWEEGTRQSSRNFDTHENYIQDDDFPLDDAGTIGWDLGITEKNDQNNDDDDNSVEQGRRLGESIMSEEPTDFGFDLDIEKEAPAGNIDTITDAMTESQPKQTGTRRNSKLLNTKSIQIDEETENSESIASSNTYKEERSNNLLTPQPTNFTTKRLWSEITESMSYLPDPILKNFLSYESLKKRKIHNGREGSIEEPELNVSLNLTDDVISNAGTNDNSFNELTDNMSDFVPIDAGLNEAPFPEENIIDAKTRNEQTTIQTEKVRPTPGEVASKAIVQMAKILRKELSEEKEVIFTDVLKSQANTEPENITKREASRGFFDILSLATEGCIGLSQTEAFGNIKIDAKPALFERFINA
Description: microscale thermophoresis. The format is binding. The following applies: fluorescently labelled protein; Smc1 co-purified with Scc1-C, plus Smc3; read-out: affinity. An excerpt:
microscale thermophoresis on Smc1/Smc3 heterodimer with Scc1-C (cohesin) | Smc1 L1129V, D1164E and E1158Q mutants all had wild-type-like affinity to both ATP and ADP | wild-type and mutant cohesin complexes appear to have similar affinities to ADP
In general terms: Microscale thermophoresis detects binding through changes in fluorescence in a small temperature gradient.

Regarding `Nc1ncnc2c1ncn2[C@@H]1O[C@H](COP(=O)(O)OP(=O)(O)OP(=O)(O)O)[C@@H](O)[C@H]1O` [ATP], the Kd came out at 542 ± 188 µM.
In the case of `Nc1ncnc2c1ncn2[C@@H]1O[C@H](COP(=O)(O)OP(=O)(O)O)[C@@H](O)[C@H]1O` [ADP], the Kd was above 1000 µM.
